Reference: patent US12357607B2, “Compositions and methods for intravenous administration of 2-bromo-1-(3,3-dinitroazetidin-1-yl)ethanone” (EpicentRx, Inc., priority 2016, dated 2025)

Assay: Phase 1 dose-escalation study: intravenous aqueous solution of ABDNAZ; safety, tolerability, adverse events
Assay type: in vivo, human
Experimental: An aqueous solution of ABDNAZ was intravenously administered to twenty-five human patients as part of a Phase I clinical study. The aqueous solution contained ABDNAZ (2 mg/mL), polyethylene glycol having a number average molecular weight of 400 g/mol (6% w/w), dimethylacetamide (3% w/w), and water for injection. Patients were administered a volume of the aqueous solution of ABDNAZ sufficient to deliver a dose of ABDNAZ in the amount of 10 mg/m^2, 16.7 mg/m^2, 24.6 mg/m^2, 33 mg/m^2, 55 mg/m^2, or 83 mg/m^2. Pain at the injection site due to administration of the aqueous solution of ABDNAZ was experienced by 84% of patients. […] Thereafter, peripheral intravenous delivery in the antecubital or forearm area was used and a longer duration of time was used to perform the infusion (e.g., ranging from 2 hours to 8 hours, while administering at a rate of 3.5 mL/hour that could be adjusted up or down in 0.5 mL/hour increments based on patients' ability to tolerate the infusion).
In this open-label, human, dose-escalation phase 1 study, a 3+3 dose-escalation design was used to assess safety, tolerability, and pharmacokinetics of ABDNAZ. Patients were enrolled from the University of California-San Diego Moores Cancer Center, La Jolla, CA, USA, and the Sarah Cannon Research Institute, Nashville, TN, USA. […] Previous antineoplastic therapies had to have been discontinued at least 6 weeks before intervention start, and patients could show no residual side-effects of previous therapies. Patients were required to practice effective contraception while receiving ABDNAZ. All patients had evaluable disease. Key exclusion criteria included hypoalbuminaemia (albumin <30 g/L), active brain metastases (although patients with stable brain metastases were eligible), pregnancy or breast feeding, any other clinically significant illness or psychiatric disorder that could affect compliance or endpoint assessments, and concurrent use of any other investigational drugs.
Screening assessments were done at the clinical site less than 16 days before treatment initiation and included an electrocardiogram, urinalysis, Modified Borg Dyspnea Assessment, pulse oximetry, and radiographic tumour measurement. A medical history, physical examination, pregnancy test, performance status, complete blood count, a comprehensive serum chemistry, and urinalysis were done within 16 days of the first dosing.
The protocol was reviewed and approved by the investigational review boards at the Moores Cancer Center and the Sarah Cannon Research Institute. All procedures were performed in accordance with the principles established by the Helsinki Declaration. Patients gave written informed consent for all clinical and research aspects of the study before enrolment, which was done according to national and institutional guidelines.
An aqueous solution of ABDNAZ was intravenously administered to patients. The aqueous solution contained ABDNAZ (2 mg/mL), polyethylene glycol having a number average molecular weight of 400 g/mol (6% w/w), dimethylacetamide (3% w/w), and water for injection. Patients were administered a volume of the aqueous solution of ABDNAZ sufficient to deliver a dose of ABDNAZ in the amount of 10 mg/m^2, 16.7 mg/m^2, 24.6 mg/m^2, 33 mg/m^2, 55 mg/m^2, or 83 mg/m^2. Three patients were given a starting dose of 10 mg/m^2 of ABDNAZ before dose escalation (to 16.7 mg/m^2, 24.6 mg/m^2, 33 mg/m^2, 55 mg/m and 83 mg/m^2), with at least three patients per dose cohort, allowing a 2-week observation period before dose escalation. […] Thereafter, peripheral intravenous delivery in the antecubital or forearm area was used and a longer duration of time was used to perform the infusion (e.g., ranging from 2 hours to 8 hours, while administering at a rate of 3.5 mL/hour that could be adjusted up or down in 0.5 mL/hour increments based on patients' ability to tolerate the infusion). […]

[1] = 10 mg/m^2 dose (n = 6), number of patients
[2] = 16.7 mg/m^2 dose (n = 3), number of patients
[3] = 24.6 mg/m^2 dose (n = 3), number of patients
[4] = 33 mg/m^2 dose (n = 4), number of patients
[5] = 55 mg/m^2 dose (n = 3), number of patients
[6] = 83 mg/m^2 dose (n = 6), number of patients
[7] = twenty-five patients, all dose cohorts
[8] = twenty-five patients, all dose cohorts 10-83 mg/m^2

O=C(CBr)N1CC([N+](=O)[O-])([N+](=O)[O-])C1 [ABDNAZ, 2-bromo-1-(3,3-dinitroazetidin-1-yl)ethanone]
Dyspnoea or wheezing, Grade 1-2, share of patients (10 mg/m^2 dose (n = 6)): (17%)
Infusion-site pain, Grade 1-2, share of patients (10 mg/m^2 dose (n = 6)): (67%)
Arm swelling or oedema, Grade 1-2 [1]: 0
Arm swelling or oedema, Grade 3 [1]: 0
Dyspnoea or wheezing, Grade 1-2 [1]: 1
Dyspnoea or wheezing, Grade 3 [1]: 0
Infusion-site pain, Grade 1-2 [1]: 4
Infusion-site pain, Grade 3 [1]: 0
Mouth tingling or burning, Grade 1-2 [1]: 0
Mouth tingling or burning, Grade 3 [1]: 0
Vein hardening, Grade 1-2 [1]: 0
Vein hardening, Grade 3 [1]: 0
Arm swelling or oedema, Grade 1-2, share of patients (16.7 mg/m^2 dose (n = 3)): (33%)
Infusion-site pain, Grade 1-2, share of patients (16.7 mg/m^2 dose (n = 3)): (100%)
Arm swelling or oedema, Grade 1-2 [2]: 1
Arm swelling or oedema, Grade 3 [2]: 0
Dyspnoea or wheezing, Grade 1-2 [2]: 0
Dyspnoea or wheezing, Grade 3 [2]: 0
Infusion-site pain, Grade 1-2 [2]: 3
Infusion-site pain, Grade 3 [2]: 0
Mouth tingling or burning, Grade 1-2 [2]: 0
Mouth tingling or burning, Grade 3 [2]: 0
Vein hardening, Grade 1-2 [2]: 0
Vein hardening, Grade 3 [2]: 0
Infusion-site pain, Grade 1-2, share of patients (24.6 mg/m^2 dose (n = 3)): (33%)
Arm swelling or oedema, Grade 1-2 [3]: 0
Arm swelling or oedema, Grade 3 [3]: 0
Dyspnoea or wheezing, Grade 1-2 [3]: 0
Dyspnoea or wheezing, Grade 3 [3]: 0
Infusion-site pain, Grade 1-2 [3]: 1
Infusion-site pain, Grade 3 [3]: 0
Mouth tingling or burning, Grade 1-2 [3]: 0
Mouth tingling or burning, Grade 3 [3]: 0
Vein hardening, Grade 1-2 [3]: 0
Vein hardening, Grade 3 [3]: 0
Arm swelling or oedema, Grade 2, share of patients (33 mg/m^2 dose (n = 4)): (25%)
Infusion-site pain, Grade 2, share of patients (33 mg/m^2 dose (n = 4)): (75%)
Infusion-site pain, Grade 3, share of patients (33 mg/m^2 dose (n = 4)): (25%)
Vein hardening, Grade 2, share of patients (33 mg/m^2 dose (n = 4)): (25%)
Arm swelling or oedema, Grade 2 [4]: 1
Arm swelling or oedema, Grade 3 [4]: 0
Dyspnoea or wheezing, Grade 2 [4]: 0
Dyspnoea or wheezing, Grade 3 [4]: 0
Infusion-site pain, Grade 2 [4]: 3
Infusion-site pain, Grade 3 [4]: 1
Mouth tingling or burning, Grade 2 [4]: 0
Mouth tingling or burning, Grade 3 [4]: 0
Vein hardening, Grade 2 [4]: 1
Vein hardening, Grade 3 [4]: 0
Arm swelling or oedema, Grade 1-2, share of patients (55 mg/m^2 dose (n = 3)): (67%)
Dyspnoea or wheezing, Grade 1-2, share of patients (55 mg/m^2 dose (n = 3)): (33%)
Infusion-site pain, Grade 1-2, share of patients (55 mg/m^2 dose (n = 3)): (100%)
Mouth tingling or burning, Grade 1-2, share of patients (55 mg/m^2 dose (n = 3)): (67%)
Vein hardening, Grade 1-2, share of patients (55 mg/m^2 dose (n = 3)): (33%)
Arm swelling or oedema, Grade 1-2 [5]: 2
Arm swelling or oedema, Grade 3 [5]: 0
Dyspnoea or wheezing, Grade 1-2 [5]: 1
Dyspnoea or wheezing, Grade 3 [5]: 0
Infusion-site pain, Grade 1-2 [5]: 3
Infusion-site pain, Grade 3 [5]: 0
Mouth tingling or burning, Grade 1-2 [5]: 2
Mouth tingling or burning, Grade 3 [5]: 0
Vein hardening, Grade 1-2 [5]: 1
Vein hardening, Grade 3 [5]: 0
Arm swelling or oedema, Grade 1-2, share of patients (83 mg/m^2 dose (n = 6)): (67%)
Dyspnoea or wheezing, Grade 1-2, share of patients (83 mg/m^2 dose (n = 6)): (50%)
Infusion-site pain, Grade 1-2, share of patients (83 mg/m^2 dose (n = 6)): (100%)
Mouth tingling or burning, Grade 1-2, share of patients (83 mg/m^2 dose (n = 6)): (33%)
Vein hardening, Grade 1-2, share of patients (83 mg/m^2 dose (n = 6)): (83%)
Arm swelling or oedema, Grade 1-2 [6]: 4
Arm swelling or oedema, Grade 3 [6]: 0
Dyspnoea or wheezing, Grade 1-2 [6]: 3
Dyspnoea or wheezing, Grade 3 [6]: 0
Infusion-site pain, Grade 1-2 [6]: 6
Infusion-site pain, Grade 3 [6]: 0
Mouth tingling or burning, Grade 1-2 [6]: 2
Mouth tingling or burning, Grade 3 [6]: 0
Vein hardening, Grade 1-2 [6]: 5
Vein hardening, Grade 3 [6]: 0
Pain at the injection site, grade (all dose cohorts 10-83 mg/m^2): mostly grade 1 and grade 2
Patients needing dose reduction to 33 mg/m^2 because of localized infusion pain (highest dose cohort (83 mg/m^2)): Three
Maximally feasible dose (limited by time constraints related to management of infusion pain): 83 mg/m^2
Patients needing dose reduction to 33 mg/m^2 because of localized infusion pain (penultimate dose cohort (55 mg/m^2)): one
Arm swelling or oedema, number of patients [7]: eight
Arm swelling or oedema, share of patients [7]: 32%
Vein hardening, number of patients [7]: seven
Vein hardening, share of patients [7]: 28%
Pain at the injection site, number of patients [8]: 21 patients
Pain at the injection site, share of patients [8]: 84%
